According to PubChem BioAssay (NCI):
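Where inhibition never reached the appropriate level, the endpoint shown equals the highest concentration tested. Otherwise, values were interpolated linearly from a five-concentration, 48-hour dose response in 96-well plates. TGI: concentration producing complete growth inhibition.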

Assays:
Experiment in all cases: DTP human tumour cell line panel, 48 h
786-0 renal = test system: 786-0 renal
A498 renal = test system: A498 renal
A549 NSCLC = test system: A549 NSCLC
ACHN renal = test system: ACHN renal
BT-549 breast = test system: BT-549 breast
CAKI-1 renal = test system: CAKI-1 renal
CCRF-CEM leukemia = test system: CCRF-CEM leukemia
COLO 205 colon = test system: COLO 205 colon
DU-145 prostate = test system: DU-145 prostate
EKVX NSCLC = test system: EKVX NSCLC
HCC-2998 colon = test system: HCC-2998 colon
HCT-116 colon = test system: HCT-116 colon
HCT-15 colon = test system: HCT-15 colon
HL-60(TB) leukemia = test system: HL-60(TB) leukemia
HOP-62 NSCLC = test system: HOP-62 NSCLC
HOP-92 NSCLC = test system: HOP-92 NSCLC
HS 578T breast = test system: HS 578T breast
HT29 colon = test system: HT29 colon
IGROV1 ovarian = test system: IGROV1 ovarian
K-562 leukemia = test system: K-562 leukemia
KM12 colon = test system: KM12 colon
LOX IMVI melanoma = test system: LOX IMVI melanoma
M14 melanoma = test system: M14 melanoma
MALME-3M melanoma = test system: MALME-3M melanoma
MCF7 breast = test system: MCF7 breast
MDA-MB-231 breast = test system: MDA-MB-231 breast
MDA-MB-435 = test system: MDA-MB-435
MDA-N = test system: MDA-N
MOLT-4 leukemia = test system: MOLT-4 leukemia
NCI-H226 lung = test system: NCI-H226 lung
NCI-H23 lung = test system: NCI-H23 lung
NCI-H522 lung = test system: NCI-H522 lung
NCI/ADR-RES ovarian = test system: NCI/ADR-RES ovarian
OVCAR-3 ovarian = test system: OVCAR-3 ovarian
OVCAR-4 ovarian = test system: OVCAR-4 ovarian
OVCAR-5 ovarian = test system: OVCAR-5 ovarian
OVCAR-8 ovarian = test system: OVCAR-8 ovarian
PC-3 prostate = test system: PC-3 prostate
RPMI-8226 leukemia = test system: RPMI-8226 leukemia
SF-268 CNS = test system: SF-268 CNS
SF-295 CNS = test system: SF-295 CNS
SF-539 CNS = test system: SF-539 CNS
SK-MEL-2 melanoma = test system: SK-MEL-2 melanoma
SK-MEL-28 melanoma = test system: SK-MEL-28 melanoma
SK-MEL-5 melanoma = test system: SK-MEL-5 melanoma
SK-OV-3 ovarian = test system: SK-OV-3 ovarian
SN12C renal = test system: SN12C renal
SNB-19 CNS = test system: SNB-19 CNS
SNB-75 CNS = test system: SNB-75 CNS
SR leukemia = test system: SR leukemia
SW-620 colon = test system: SW-620 colon
T-47D breast = test system: T-47D breast
TK-10 renal = test system: TK-10 renal
U251 CNS = test system: U251 CNS
UACC-257 melanoma = test system: UACC-257 melanoma
UACC-62 melanoma = test system: UACC-62 melanoma
UO-31 renal = test system: UO-31 renal

Measured: TGI

CCOC(=O)P(=O)(O)c1ccc(N(C)Cc2ccccc2)cc1
> 100 µM: 786-0 renal | A498 renal | A549 NSCLC | ACHN renal | BT-549 breast | CAKI-1 renal | CCRF-CEM leukemia | COLO 205 colon | DU-145 prostate | EKVX NSCLC | HCC-2998 colon | HCT-116 colon | HCT-15 colon | HL-60(TB) leukemia | HOP-62 NSCLC | HOP-92 NSCLC | HS 578T breast | HT29 colon | IGROV1 ovarian | K-562 leukemia | KM12 colon | LOX IMVI melanoma | M14 melanoma | MALME-3M melanoma | MCF7 breast | MDA-MB-231 breast | MDA-MB-435 | MDA-N | MOLT-4 leukemia | NCI-H226 lung | NCI-H23 lung | NCI-H522 lung | NCI/ADR-RES ovarian | OVCAR-3 ovarian | OVCAR-4 ovarian | OVCAR-5 ovarian | OVCAR-8 ovarian | PC-3 prostate | RPMI-8226 leukemia | SF-268 CNS | SF-295 CNS | SF-539 CNS | SK-MEL-2 melanoma | SK-MEL-28 melanoma | SK-MEL-5 melanoma | SK-OV-3 ovarian | SN12C renal | SNB-19 CNS | SNB-75 CNS | SR leukemia | SW-620 colon | T-47D breast | TK-10 renal | U251 CNS | UACC-257 melanoma | UACC-62 melanoma | UO-31 renal
